# Test results taken from US7790761B2, “Blockade of voltage dependent sodium channels” (University College London, priority 2000, dated 2010).
# Several values for one entry are separate records, joined by “and”; a condition that tells them apart may be missing. Identical values can stand only once.
# How the values were obtained:
# sodium channels = assay: [14C]-labelled guanidine flux through sodium channels; type: biochemical, rat; conditions: inhibition of flux of [14C]-labelled guanidine through sodium channels
# optic nerve = assay: tissue or blood; type: cell-based; conditions: Rattus norvegicus; 30 μM of each drug; OGD 1 h; cGMP accumulation; compared with protection achieved by TTX; read-out: % protection accorded
SMILES,IC50 (sodium channels),inhibition at 30 µM (optic nerve)
"Cc1cccc(NC(=O)c2cc(C)n(Cc3c(Cl)cccc3Cl)n2)c1 [1-(2,6-Dichloro-benzyl)-5-methyl-1H-pyrazole-3-carboxylic acid m-tolylamide]",7 µM,29%
Cc1cc(C(=O)Nc2ccc(C(C)(C)C)cc2)nn1C(C)(C)C [1-tert-Butyl-5-methyl-1H-pyrazole-3-carboxylic acid (4-tert-butyl-phenyl)-amide],6 µM,39%
CC(C)(C)c1cc(C(=O)NNC(=O)Nc2cccc(Cl)c2)n(Cc2ccccc2)n1 [2-Benzyl-5-tert-butyl-2H-pyrazole-3-carboxylic acid N′-(3-chlorophenylcarbamoyl) hydrazide],5.8 µM,12%
Cc1ccc(NC(=O)c2cc(C(C)(C)C)nn2Cc2ccccc2)cc1 [2-Benzyl-5-tert-butyl-2H-pyrazole-3-carboxylic acid p-tolylamide],2 µM,66%
"Cn1c(SCC(=O)c2ccc(Cl)cc2)nnc1-c1cc(C(C)(C)C)nn1Cc1ccc(F)cc1 [2-{5-[5-tert-Butyl-2-(4-fluoro-benzyl)-2H-pyrazol-3-yl]-4-methyl-4H-[1,2,4]triazol-3-ylsulfanyl}-1-(4-chloro-phenyl)-ethanone]",4.6 µM,19%
"Cn1c(SCC(=O)c2ccccc2)nnc1-c1cc(C(C)(C)C)nn1Cc1ccc(F)cc1 [2-{5-[5-tert-Butyl-2-(4-fluoro-benzyl)-2H-pyrazol-3-yl]-4-methyl-4H-[1,2,4]triazol-3-ylsulfanyl}-1-phenyl-ethanone]",19.5 µM,18%
"Cn1c(SCc2ccccc2)nnc1-c1cc(C(C)(C)C)nn1Cc1ccc(F)cc1 [3-Benzylsulfanyl-5-[5-tert-butyl-2-(4-fluoro-benzyl)-2H-pyrazol-3-yl]-4-methyl-4H-[1,2,4]triazole]",12 µM and 12.3 µM,72%
Cn1nc(C(C)(C)C)cc1C(=O)Nc1ccc(Cl)cc1 [5-tert-Butyl-2-methyl-2H-pyrazole-3-carboxylic acid (4-chloro-phenyl)-amide],6 µM,62%
"CC(C)(C)c1cc(C(=O)Nc2nc(-c3cccnc3)cs2)n(Cc2ccc(Cl)cc2Cl)n1 [Example 41, 5-tert-Butyl-2-(2,4-dichloro-benzyl)-2H-pyrazole-3-carboxylic acid (4-(pyridin-3-yl)thiazol-2-yl)-amide]",14 µM,–
"CCn1nc(-c2cccs2)cc1C(=O)Nc1nc(-c2cccnc2)cs1 [Example 42, 2-Ethyl-5-thiophen-2-yl-2H-pyrazole-3-carboxylic acid (4-(pyridin-3-yl)thiazol-2-yl)-amide]",< 9 µM,–
"CC(=O)Nc1ccc(NC(=O)c2cc(C(C)(C)C)nn2Cc2ccccc2)cc1 [Example 43, 2-Benzyl-5-tert-butyl-2H-pyrazole-3-carboxylic acid (4-acetylamino-phenyl)-amide]",16 µM,–
"Cn1nc(C(C)(C)C)cc1C(=O)Nc1nc(-c2cccnc2)cs1 [Example 44, 5-tert-Butyl-2-methyl-2H-pyrazole-3-carboxylic acid (4-(pyridin-3-yl)thiazol-2-yl)-amide]",< 9 µM,–
"COc1ccc(Cc2noc(NC(=O)c3cc(C(C)(C)C)nn3C)n2)cc1 [Example 45, 5-tert-Butyl-2-methyl-2H-pyrazole-3-carboxylic acid [3-(4-methoxy-benzyl)-[1,2,4]oxadiazol-5-yl]-amide]",19 µM,–
"CCNCCCCc1nn(Cc2ccccc2)c2ccccc12 [Example 46, [N-Ethyl-(4-Aminobutyl)]-1-benzylindazole]",15.5 µM,–
"CN(C)CCNC(=O)c1nn(Cc2ccccc2)c2ccccc12 [Example 47, 1-Benzyl-3-[N-(2-N,N-dimethylaminoethyl)carboxamido]indazole]",63 µM,–
"NCc1noc(-c2nn(Cc3ccccc3)c3ccccc23)n1 [Example 51, 1-Benzyl-3-[3-aminomethyl-1,2,4-oxadiazol-yl]indazole]",22.4 µM,–
